Assay results from ChEMBL document CHEMBL4350952, “Evolution of PI3Kγ and δ Inhibitors for Inflammatory and Autoimmune Diseases” (J Med Chem, 2019).
pIC50: −log10 of the molar value.

Experiments:
U-937 = assay: cells; assay type: functional, cell-based; details: Homo sapiens
Description: Cytotoxicity against in human U937 cells

Homo sapiens = species on record: Homo sapiens; assay: Selectivity ratio of IC50 for PI3Kbeta in human U937 cells to IC50 for GST-tagged PI3Kdelta in human U937 cells; assay type: cell-based
Mus musculus [1] = species on record: Mus musculus; assay: Decrease in eosinophil influx reduction in mouse at 1 ug, it relative to control; assay type: functional; set-up: scale not given: the % may be the effect or the level left
Mus musculus [2] = species on record: Mus musculus; assay: Decrease in eosinophil influx reduction in mouse at 4 ug, it relative to control; assay type: functional; set-up: scale not given: the % may be the effect or the level left
Mus musculus [3] = species on record: Mus musculus; assay: Decrease in eosinophil influx reduction in mouse at 20 ug, it relative to control; assay type: functional; set-up: scale not given: the % may be the effect or the level left
Mus musculus [4] = species on record: Mus musculus; assay: Decrease in neutrophil influx reduction in mouse at 1 ug, it relative to control; assay type: functional; set-up: scale not given: the % may be the effect or the level left
Mus musculus [5] = species on record: Mus musculus; assay: Decrease in neutrophil influx reduction in mouse at 4 ug, it relative to control; assay type: functional; set-up: scale not given: the % may be the effect or the level left
Mus musculus [6] = species on record: Mus musculus; assay: Decrease in neutrophil influx reduction in mouse at 20 ug, it relative to control; assay type: functional; set-up: scale not given: the % may be the effect or the level left
Mus musculus [7] = species on record: Mus musculus; assay: Decrease in number of neutrophils in mouse BAL at 1 ug, it at 2 hrs post dose relative to control; assay type: functional; set-up: scale not given: the % may be the effect or the level left
Mus musculus [8] = species on record: Mus musculus; assay: Decrease in number of neutrophils in mouse BAL at 4 ug, it at 2 hrs post dose relative to control; assay type: functional; set-up: scale not given: the % may be the effect or the level left
Mus musculus [9] = species on record: Mus musculus; assay: Decrease in number of neutrophils in mouse BAL at 20 ug, it at 2 hrs post dose relative to control; assay type: functional; set-up: scale not given: the % may be the effect or the level left
Mus musculus [10] = species on record: Mus musculus; assay: Decrease in number of neutrophils in mouse BAL at 4 ug, it at 8 hrs post dose relative to control; assay type: functional; set-up: scale not given: the % may be the effect or the level left
Mus musculus [11] = species on record: Mus musculus; assay: Decrease in number of neutrophils in mouse BAL at 4 ug, it at 12 hrs post dose relative to control; assay type: functional; set-up: scale not given: the % may be the effect or the level left
Rattus norvegicus [12] = species on record: Rattus norvegicus; assay: Decrease in number of neutrophils in rat BAL at 5 ug, it at 2 hrs post dose relative to control; assay type: functional; set-up: scale not given: the % may be the effect or the level left
Rattus norvegicus [13] = species on record: Rattus norvegicus; assay: Decrease in number of neutrophils in rat BAL at 20 ug, it at 2 hrs post dose relative to control; assay type: functional; set-up: scale not given: the % may be the effect or the level left
Rattus norvegicus [14] = species on record: Rattus norvegicus; assay: Decrease in number of neutrophils in rat BAL at 100 ug, it at 2 hrs post dose relative to control; assay type: functional; set-up: scale not given: the % may be the effect or the level left
Rattus norvegicus [15] = species on record: Rattus norvegicus; assay: Decrease in number of neutrophils in rat BAL at 20 ug, it at 8 hrs post dose relative to control; assay type: functional; set-up: scale not given: the % may be the effect or the level left
Rattus norvegicus [16] = species on record: Rattus norvegicus; assay: Decrease in number of neutrophils in rat BAL at 20 ug, it at 12 hrs post dose relative to control; assay type: functional; set-up: scale not given: the % may be the effect or the level left

COCCOCCOCC#Cc1cccc2nc(Cn3nc(-c4cc(O)cc(F)c4)c4c(N)ncnc43)n(Cc3ccccc3C(F)(F)F)c(=O)c12
pIC50 (U-937): 8.13
Ratio IC50 (Homo sapiens): 2000
Activity (Mus musculus [1]): 20%
Activity (Mus musculus [2]): 85%
Activity (Mus musculus [3]): 91%
Activity (Mus musculus [4]): 18%
Activity (Mus musculus [5]): 70%
Activity (Mus musculus [6]): 80%
Activity (Mus musculus [7]): 19%
Activity (Mus musculus [8]): 53%
Activity (Mus musculus [9]): 68%
Activity (Mus musculus [10]): 45%
Activity (Mus musculus [11]): 23%
Activity (Rattus norvegicus [12]): 9%
Activity (Rattus norvegicus [13]): 58%
Activity (Rattus norvegicus [14]): 73%
Activity (Rattus norvegicus [15]): 33%
Activity (Rattus norvegicus [16]): 10%
